# Tests used:
# [1] = target: Voltage-gated inwardly rectifying potassium channel KCNH2 (Homo sapiens, UniProt Q12809); format: functional
# [2] = target: Glutamate receptor ionotropic, NMDA 1 (Rattus norvegicus, UniProt P35439)
# [3] = target: T1, 5-hydroxytryptamine receptor 3A (Homo sapiens, UniProt P46098); format: functional
# T1 sequence (P46098 whole entry): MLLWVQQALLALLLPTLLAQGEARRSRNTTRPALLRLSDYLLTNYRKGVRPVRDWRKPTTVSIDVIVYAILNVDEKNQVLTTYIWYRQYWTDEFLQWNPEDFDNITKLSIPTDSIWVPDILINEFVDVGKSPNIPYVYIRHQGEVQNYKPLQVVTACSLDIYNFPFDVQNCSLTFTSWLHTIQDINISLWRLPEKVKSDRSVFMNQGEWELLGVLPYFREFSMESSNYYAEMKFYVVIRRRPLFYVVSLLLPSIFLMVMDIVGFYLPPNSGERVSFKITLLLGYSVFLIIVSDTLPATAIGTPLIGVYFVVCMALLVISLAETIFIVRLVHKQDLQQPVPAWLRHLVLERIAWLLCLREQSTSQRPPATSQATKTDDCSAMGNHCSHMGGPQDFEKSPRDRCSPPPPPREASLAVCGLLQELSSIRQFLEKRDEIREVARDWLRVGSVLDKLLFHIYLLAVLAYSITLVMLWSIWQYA
# Adenosine receptor A2a = Adenosine receptor A2a (Homo sapiens, UniProt P29274)
# Adenosine receptor A2a, sequence (P29274 whole entry): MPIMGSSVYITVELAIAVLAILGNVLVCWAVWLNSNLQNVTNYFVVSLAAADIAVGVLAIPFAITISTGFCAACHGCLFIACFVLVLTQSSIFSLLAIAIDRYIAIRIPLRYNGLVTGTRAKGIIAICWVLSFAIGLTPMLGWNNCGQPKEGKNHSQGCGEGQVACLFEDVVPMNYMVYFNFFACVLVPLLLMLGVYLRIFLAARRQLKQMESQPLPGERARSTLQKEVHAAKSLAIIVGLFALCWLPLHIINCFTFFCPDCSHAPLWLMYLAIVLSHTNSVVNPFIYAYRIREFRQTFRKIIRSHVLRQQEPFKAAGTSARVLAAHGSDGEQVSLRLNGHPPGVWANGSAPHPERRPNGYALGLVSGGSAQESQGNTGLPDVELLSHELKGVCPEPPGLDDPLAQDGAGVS
# [4] = target: cGMP-inhibited 3',5'-cyclic phosphodiesterase 3A (Homo sapiens, UniProt Q14432); format: functional
# cGMP-inhibited 3',5'-cyclic phosphodiesterase 3A, sequence (Q14432 whole entry): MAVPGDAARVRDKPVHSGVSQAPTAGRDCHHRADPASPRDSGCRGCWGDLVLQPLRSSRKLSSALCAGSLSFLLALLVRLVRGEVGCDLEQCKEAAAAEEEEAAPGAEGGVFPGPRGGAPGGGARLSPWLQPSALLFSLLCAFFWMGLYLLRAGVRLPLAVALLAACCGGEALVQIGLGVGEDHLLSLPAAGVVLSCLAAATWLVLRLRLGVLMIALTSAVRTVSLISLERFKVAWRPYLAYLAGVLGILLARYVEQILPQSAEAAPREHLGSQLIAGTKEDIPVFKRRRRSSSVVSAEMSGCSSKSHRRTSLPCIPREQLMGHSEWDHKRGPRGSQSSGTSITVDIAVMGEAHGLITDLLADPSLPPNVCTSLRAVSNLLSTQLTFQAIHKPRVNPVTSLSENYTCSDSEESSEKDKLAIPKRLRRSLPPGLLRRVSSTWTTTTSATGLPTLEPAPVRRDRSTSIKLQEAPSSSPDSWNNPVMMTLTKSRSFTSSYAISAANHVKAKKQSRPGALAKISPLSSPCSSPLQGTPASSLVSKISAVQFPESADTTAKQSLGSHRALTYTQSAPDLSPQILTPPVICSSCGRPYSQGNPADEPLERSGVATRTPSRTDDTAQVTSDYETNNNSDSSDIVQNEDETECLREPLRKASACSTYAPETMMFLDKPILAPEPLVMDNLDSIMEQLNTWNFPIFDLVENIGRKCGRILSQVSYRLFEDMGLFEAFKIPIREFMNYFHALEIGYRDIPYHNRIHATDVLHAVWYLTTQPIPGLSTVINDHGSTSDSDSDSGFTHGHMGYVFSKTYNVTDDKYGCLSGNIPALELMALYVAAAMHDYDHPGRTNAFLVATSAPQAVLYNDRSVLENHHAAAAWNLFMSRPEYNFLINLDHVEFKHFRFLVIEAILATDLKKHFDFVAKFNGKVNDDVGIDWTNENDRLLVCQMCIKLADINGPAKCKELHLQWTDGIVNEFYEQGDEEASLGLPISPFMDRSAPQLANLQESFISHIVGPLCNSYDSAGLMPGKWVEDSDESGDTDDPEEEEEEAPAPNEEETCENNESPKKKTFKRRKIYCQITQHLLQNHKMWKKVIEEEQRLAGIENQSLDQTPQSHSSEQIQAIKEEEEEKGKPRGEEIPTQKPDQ
# [5] = target: Delta-type opioid receptor (Homo sapiens, UniProt P41143)
# Delta-type opioid receptor, sequence (P41143 whole entry): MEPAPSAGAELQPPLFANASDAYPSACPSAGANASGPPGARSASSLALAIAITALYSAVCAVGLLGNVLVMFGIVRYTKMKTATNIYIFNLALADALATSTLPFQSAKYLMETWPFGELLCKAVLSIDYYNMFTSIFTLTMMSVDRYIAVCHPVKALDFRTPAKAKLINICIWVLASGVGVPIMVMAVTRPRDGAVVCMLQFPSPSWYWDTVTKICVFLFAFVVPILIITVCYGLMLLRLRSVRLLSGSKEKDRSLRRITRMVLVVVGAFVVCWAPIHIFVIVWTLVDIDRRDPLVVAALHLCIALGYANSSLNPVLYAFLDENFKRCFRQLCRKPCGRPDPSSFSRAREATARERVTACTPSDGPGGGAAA
# [6] = target: T2, Neuropeptide Y receptor type 1 (Homo sapiens, UniProt P25929); conditions: read-out: AC50
# T2 sequence (P25929 whole entry): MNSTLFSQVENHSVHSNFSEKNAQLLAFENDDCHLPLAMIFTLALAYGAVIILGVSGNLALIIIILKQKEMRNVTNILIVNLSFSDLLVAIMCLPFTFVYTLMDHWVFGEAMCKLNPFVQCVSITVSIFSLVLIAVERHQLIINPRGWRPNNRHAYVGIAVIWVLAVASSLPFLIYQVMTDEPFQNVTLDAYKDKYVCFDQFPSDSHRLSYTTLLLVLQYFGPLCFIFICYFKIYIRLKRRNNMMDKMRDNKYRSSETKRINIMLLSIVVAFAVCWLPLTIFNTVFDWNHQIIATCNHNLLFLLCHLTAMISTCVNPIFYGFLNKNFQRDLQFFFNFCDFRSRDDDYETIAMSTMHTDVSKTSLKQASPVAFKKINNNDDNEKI
# [7] = target: T3, Alpha-2C adrenergic receptor (Homo sapiens, UniProt P18825); format: functional
# T3 sequence (P18825 whole entry): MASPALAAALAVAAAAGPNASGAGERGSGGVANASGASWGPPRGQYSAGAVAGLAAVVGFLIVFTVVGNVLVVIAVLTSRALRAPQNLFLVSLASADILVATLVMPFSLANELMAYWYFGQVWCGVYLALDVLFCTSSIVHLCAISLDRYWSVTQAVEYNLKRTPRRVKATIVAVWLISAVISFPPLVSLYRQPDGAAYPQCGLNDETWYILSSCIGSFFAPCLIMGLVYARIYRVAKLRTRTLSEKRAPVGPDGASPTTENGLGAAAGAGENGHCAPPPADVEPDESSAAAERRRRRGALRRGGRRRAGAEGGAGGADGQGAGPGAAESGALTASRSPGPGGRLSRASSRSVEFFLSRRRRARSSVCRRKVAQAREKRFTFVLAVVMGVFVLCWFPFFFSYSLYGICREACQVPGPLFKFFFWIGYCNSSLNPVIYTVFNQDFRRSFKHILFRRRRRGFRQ
# B2 bradykinin receptor = target: T4, B2 bradykinin receptor (Homo sapiens, UniProt P30411)
# T4 sequence (P30411 whole entry): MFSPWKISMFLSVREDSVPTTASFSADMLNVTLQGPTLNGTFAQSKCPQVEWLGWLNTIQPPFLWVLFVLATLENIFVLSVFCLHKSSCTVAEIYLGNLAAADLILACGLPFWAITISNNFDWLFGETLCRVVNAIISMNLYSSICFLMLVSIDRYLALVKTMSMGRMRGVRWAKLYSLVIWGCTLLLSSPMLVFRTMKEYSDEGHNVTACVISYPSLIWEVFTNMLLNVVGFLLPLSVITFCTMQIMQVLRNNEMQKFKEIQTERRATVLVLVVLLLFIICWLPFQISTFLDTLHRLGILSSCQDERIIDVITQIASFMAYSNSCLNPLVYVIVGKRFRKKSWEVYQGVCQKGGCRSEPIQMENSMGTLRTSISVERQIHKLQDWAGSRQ
# [8] = target: T5, 5-hydroxytryptamine receptor 2C (Homo sapiens, UniProt P28335)
# T5 sequence (P28335 whole entry): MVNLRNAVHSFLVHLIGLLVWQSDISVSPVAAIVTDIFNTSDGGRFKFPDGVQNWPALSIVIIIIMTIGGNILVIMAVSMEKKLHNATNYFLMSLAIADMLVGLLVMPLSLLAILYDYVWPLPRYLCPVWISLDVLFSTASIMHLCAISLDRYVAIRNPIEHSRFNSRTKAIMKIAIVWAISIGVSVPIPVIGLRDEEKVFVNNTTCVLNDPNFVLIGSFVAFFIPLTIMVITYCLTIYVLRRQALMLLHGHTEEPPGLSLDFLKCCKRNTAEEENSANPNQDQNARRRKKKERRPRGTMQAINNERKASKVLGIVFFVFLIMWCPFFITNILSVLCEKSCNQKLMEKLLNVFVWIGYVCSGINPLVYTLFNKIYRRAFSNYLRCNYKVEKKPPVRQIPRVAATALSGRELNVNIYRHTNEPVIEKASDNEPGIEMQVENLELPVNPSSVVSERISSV
# Note: assay procedure not described here.
# Voltage-gated inwardly rectifying potassium channel KCNH2, sequence (Q12809 whole entry): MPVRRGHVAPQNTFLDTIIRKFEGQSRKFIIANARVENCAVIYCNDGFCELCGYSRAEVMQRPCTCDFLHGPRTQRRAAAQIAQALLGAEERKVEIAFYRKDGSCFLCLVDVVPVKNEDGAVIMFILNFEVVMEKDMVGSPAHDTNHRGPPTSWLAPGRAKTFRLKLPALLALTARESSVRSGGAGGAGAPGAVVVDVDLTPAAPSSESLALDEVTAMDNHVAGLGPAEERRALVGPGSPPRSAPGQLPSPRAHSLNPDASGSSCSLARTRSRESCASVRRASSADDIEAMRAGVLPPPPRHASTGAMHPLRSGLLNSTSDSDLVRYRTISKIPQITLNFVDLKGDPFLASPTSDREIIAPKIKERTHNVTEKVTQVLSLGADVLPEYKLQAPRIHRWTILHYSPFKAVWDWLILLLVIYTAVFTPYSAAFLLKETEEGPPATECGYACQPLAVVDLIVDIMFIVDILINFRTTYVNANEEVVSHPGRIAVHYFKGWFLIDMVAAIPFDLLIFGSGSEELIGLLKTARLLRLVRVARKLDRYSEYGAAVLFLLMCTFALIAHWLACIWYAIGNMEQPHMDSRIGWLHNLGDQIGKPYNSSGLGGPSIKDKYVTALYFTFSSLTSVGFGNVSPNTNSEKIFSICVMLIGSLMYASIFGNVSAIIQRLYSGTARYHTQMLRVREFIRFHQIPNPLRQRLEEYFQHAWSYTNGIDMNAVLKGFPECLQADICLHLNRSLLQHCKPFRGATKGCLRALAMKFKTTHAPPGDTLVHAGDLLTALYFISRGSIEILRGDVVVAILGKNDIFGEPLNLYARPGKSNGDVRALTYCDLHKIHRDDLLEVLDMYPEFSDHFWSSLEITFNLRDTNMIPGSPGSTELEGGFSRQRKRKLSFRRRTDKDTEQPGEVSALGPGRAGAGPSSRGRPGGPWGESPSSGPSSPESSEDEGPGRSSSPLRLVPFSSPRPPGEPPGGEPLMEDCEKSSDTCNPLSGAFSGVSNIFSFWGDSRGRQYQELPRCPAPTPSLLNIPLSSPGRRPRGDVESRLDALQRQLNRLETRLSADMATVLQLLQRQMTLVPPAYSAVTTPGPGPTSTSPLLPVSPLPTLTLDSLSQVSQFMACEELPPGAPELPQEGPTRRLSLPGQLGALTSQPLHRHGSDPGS
SMILES,AC50 [1] [µM],AC50 [2] [µM],AC50 [3] [µM],AC50 (Adenosine receptor A2a) [µM],AC50 [4] [µM],AC50 [5] [µM],AC50 [6] [µM],AC50 [7] [µM],AC50 (B2 bradykinin receptor) [µM],AC50 [8] [µM]
NCC(CC(=O)O)c1ccccc1 (centres undefined) [PHENIBUT],> 30,–,–,–,–,–,–,–,–,–
Cc1cnc(C(=O)NCCc2ccc(S(=O)(=O)NC(=O)NC3CCCCC3)cc2)cn1 [GLIPIZIDE],–,> 10,> 10,> 30,> 30,> 10,> 30,> 10,> 30,> 30
COc1ccc(CN(CCN(C)C)c2ccccn2)cc1 [PYRILAMINE],9.59,–,–,–,–,–,–,–,–,–
C=CCSCC1Nc2cc(Cl)c(S(N)(=O)=O)cc2S(=O)(=O)N1 (centres undefined) [ALTHIAZIDE],> 30,–,–,–,–,–,–,–,–,–
NC(=O)OCC(O)COc1ccc(Cl)cc1 (centres undefined) [CHLORPHENESIN CARBAMATE],> 30,–,–,–,–,–,–,–,–,–
C[C@H](Cc1cc2c(c(C(N)=O)c1)N(CCCO)CC2)NCCOc1ccccc1OCC(F)(F)F [SILODOSIN],12.8,–,–,–,–,–,–,–,–,–
O=C(O)c1cn(C2CC2)c2cc(N3CCNCC3)c(F)cc2c1=O [CIPROFLOXACIN],–,–,–,> 30,> 30,–,> 30,–,> 30,–
CC(N)Cc1ccc(O)cc1 (centres undefined) [HYDROXYAMPHETAMINE],> 30,–,–,–,–,–,–,–,–,–
CCOC(=O)[C@H](CCc1ccccc1)N[C@@H](C)C(=O)N(CC(=O)O)C1Cc2ccccc2C1,> 30,–,–,–,–,–,–,–,–,–
CN1CCN(C2=Nc3ccccc3Oc3ccc(Cl)cc32)CC1 [LOXAPINE],10.6,> 10,0.38,> 30,> 30,8.51,> 30,–,> 30,0.029
CCOC(=O)N1CSC[C@H]1C(=O)O [TELMESTEINE],> 30,–,–,–,–,–,–,–,–,–
CC(C)N(CCNC(=O)CN1CCCC1=O)C(C)C,> 30,–,–,–,–,–,–,–,–,–
CN1C(=O)/C(=N\NC(N)=S)c2ccccc21 [METHISAZONE],> 30,–,–,–,–,–,–,–,–,–
CC(C)(C)NC[C@H](O)COc1cccc2c1CCCC2=O [LEVOBUNOLOL],> 30,–,–,–,–,–,–,–,–,–
CC12CC3CC(C)(C1)CC(N)(C3)C2 [MEMANTINE],> 30,–,> 30,> 30,> 30,> 30,> 30,> 10,> 30,> 30
c1ccc2c(c1)CCc1ccccc1N2C1CN2CCC1CC2 (centres undefined) [QUINUPRAMINE],12,–,–,–,–,–,–,–,–,–
CCC(=O)O[C@]1(C(=O)CCl)[C@@H](C)C[C@H]2[C@@H]3C[C@H](F)C4=CC(=O)C=C[C@]4(C)[C@@]3(F)[C@@H](O)C[C@@]21C [HALOBETASOL PROPIONATE],> 30,–,–,–,–,–,–,–,–,–
Cc1cc(NC(=O)C2=C(O)c3ccccc3S(=O)(=O)N2C)no1 [ISOXICAM],> 30,–,–,–,–,–,–,–,–,–

SMILES,AC50 [1] [µM],AC50 [2] [µM],AC50 [3] [µM],AC50 (Adenosine receptor A2a) [µM],AC50 [4] [µM],AC50 [5] [µM],AC50 [6] [µM],AC50 [7] [µM],AC50 (B2 bradykinin receptor) [µM],AC50 [8] [µM]
O=[N+]([O-])c1ccc(O)c2ncccc12 [NITROXOLINE],28,> 30,6.6,–,> 30,5.7,–,7.1,–,5.5
CCOC(=O)c1cncn1[C@H](C)c1ccccc1 [ETOMIDATE],> 30,> 10,–,> 10,> 30,> 30,> 10,> 10,> 10,> 30
CNCc1ccc(-c2[nH]c3cc(F)cc4c3c2CCNC4=O)cc1 [RUCAPARIB],14.1,–,–,> 30,> 30,–,> 30,> 10,> 30,–
Oc1ccc2c(c1)CC[C@H](c1ccccc1)[C@@H]2c1ccc(OCCN2CCCC2)cc1 [LASOFOXIFENE],0.73,> 30,> 30,> 30,> 30,7.2,25,–,> 30,5.3
Cc1cc(N)c2ccccc2[n+]1CCCCCCCCCC[n+]1c(C)cc(N)c2ccccc21,0.133,–,–,–,–,–,–,–,–,–
Cc1ccccc1N1CCN(CCc2nnc3n2CCCC3)CC1 [DAPIPRAZOLE],> 30,–,–,–,–,–,–,–,–,–
COc1cc2c(cc1OC)CC(=O)N(CCCN(C)C[C@H]1Cc3cc(OC)c(OC)cc31)CC2 [IVABRADINE],30,–,–,–,–,–,–,–,–,–
CC(C)NCC(O)c1ccc(O)c(O)c1 (centres undefined) [ISOPROTERENOL],> 30,> 10,> 10,> 30,18,> 10,> 30,–,> 30,> 30
CC[C@@H]([C@H](C)O)n1ncn(-c2ccc(N3CCN(c4ccc(OC[C@@H]5CO[C@@](Cn6cncn6)(c6ccc(F)cc6F)C5)cc4)CC3)cc2)c1=O [POSACONAZOLE],> 30,–,–,–,> 30,> 30,–,> 30,–,–
CCCc1nc(C(C)(C)O)c(C(=O)O)n1Cc1ccc(-c2ccccc2-c2nnn[nH]2)cc1 [OLMESARTAN],> 30,–,–,–,–,–,–,–,–,–
CN(C)CCCNc1c2ccccc2nc2cccc([N+](=O)[O-])c12 [NITRACRINE],0.46,> 30,> 30,17,> 30,–,> 30,5.2,> 30,2.7
Cc1ncc(COP(=O)(O)O)c(C=O)c1O [PYRIDOXAL PHOSPHATE ANHYDROUS],> 30,–,–,–,–,–,–,–,–,–
COC(=O)c1ccc(O)cc1 [METHYLPARABEN],> 30,–,–,–,–,–,–,–,–,–
CN1CCC(=C2c3ccccc3CCc3cccnc32)CC1 [AZATADINE],24.6,> 10,> 30,> 30,> 30,> 30,> 30,–,> 30,3.1
CCC(C)C1(CC)C(=O)NC(=O)NC1=O (centres undefined) [BUTABARBITAL],> 30,–,–,> 30,> 30,–,–,> 30,> 30,–
Cc1cccc(N2CC(CO)OC2=O)c1 (centres undefined) [TOLOXATONE],> 30,> 30,> 30,> 30,> 30,–,> 30,> 30,> 30,> 30
Cc1c(N(C)CS(=O)(=O)O)c(=O)n(-c2ccccc2)n1C [METAMIZOLE],> 30,–,–,–,–,–,–,–,–,–
CC(=O)O[C@]1(C(C)=O)CC[C@H]2[C@@H]3C=C(Cl)C4=CC(=O)CC[C@]4(C)[C@H]3CC[C@@]21C [CHLORMADINONE ACETATE],> 30,–,–,–,–,–,–,–,–,–
